Read-outs that look alike come from different tables or passages of the source.
Legend:
H3 receptors = molecular target: T1, H3 receptors (Cavia porcellus, UniProt Q9JI35); experiment: H3-Receptor Binding Assay (guinea pig brain membranes, [3H]R-a-methylhistamine or [3H]Na-methylhistamine)
T1 construct: The source of the H3 receptors in this experiment was guinea pig brain; from tissue; host or cells: guinea pig brain membranes
Experimental: The source of the H3 receptors in this experiment was guinea pig brain. The animals weighed 400-600 g. The brain tissue was homogenized using a Polytron in a solution of 50 mM Tris, pH 7.5. The final concentration of tissue in the homogenization buffer was 10% w/v. The homogenates were centrifuged at 1,000×g for 10 min. in order to remove clumps of tissue and debris. The resulting supernatants were then centrifuged at 50,000×g for 20 min. in order to sediment the membranes, which were next washed three times in homogenization buffer (50,000×g for 20 min. each). The membranes were frozen and stored at -70° C. until needed.
All compounds to be tested were dissolved in DMSO and then diluted into the binding buffer (50 mM Tris, pH 7.5) such that the final concentration was 2 μg/ml with 0.1% DMSO. Membranes were then added (400 μg of protein) to the reaction tubes. The reaction was started by the addition of 3 nM [^3 H]R-a-methylhistamine (8.8 Ci/mmol) or 3 nM [^3 H]N^a -methylhistamine (80 Ci/mmol) and continued under incubation at 30° C. for 30 min. Bound ligand was separated from unbound ligand by filtration, and the amount of radioactive ligand bound to the membranes was quantitated by liquid scintillation spectrometry. All incubations were performed in duplicate and the standard error was always less than 10%. […] The results are given in the table below for the HCl salt of the indicated compound.

[1] = tested on: electrically induced convulsions; details: mice; Yokoyama et al., Eur. J. Pharmacol. 1993; cited from earlier work
[2] = tested on: short-term memory and reversal learning; details: rat; Clapham et al., Brit. J. Pharm. Suppl. 1993; cited from earlier work
[3] = HCl salt of the indicated compound, guinea pig brain membranes, 3 nM [3H]R-a-methylhistamine or 3 nM [3H]Na-methylhistamine, pH 7.5, 30° C., 30 min, read-out: Ki

T1 sequence (Q9JI35 whole entry): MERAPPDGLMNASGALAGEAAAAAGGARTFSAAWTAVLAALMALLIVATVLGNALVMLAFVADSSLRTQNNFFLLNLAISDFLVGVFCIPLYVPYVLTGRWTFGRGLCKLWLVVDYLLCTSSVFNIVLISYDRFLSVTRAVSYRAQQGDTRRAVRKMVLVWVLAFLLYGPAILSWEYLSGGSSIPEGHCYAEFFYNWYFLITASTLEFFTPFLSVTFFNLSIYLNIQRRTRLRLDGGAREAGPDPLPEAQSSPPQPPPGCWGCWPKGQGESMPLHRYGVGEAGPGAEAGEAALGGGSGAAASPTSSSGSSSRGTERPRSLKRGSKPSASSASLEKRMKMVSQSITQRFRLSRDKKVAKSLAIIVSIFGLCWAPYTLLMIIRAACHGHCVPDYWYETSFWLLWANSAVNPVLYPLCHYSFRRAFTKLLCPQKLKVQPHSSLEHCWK

COc1cccc(NC(=O)NCc2ccc(Cc3c[nH]cn3)cc2)c1 [Compound 1] gave a Ki (H3 receptors; [3]) of 18 nM.

In the case of O=C(NCc1ccc(Cc2c[nH]cn2)cc1)Nc1cc(C(F)(F)F)cc(C(F)(F)F)c1 [Compound 2], the Ki (H3 receptors; [3]) is reported as 22 nM.

With Cc1cc(C)cc(NC(=O)NCc2ccc(Cc3c[nH]cn3)cc2)c1 [Compound 3] the Ki (H3 receptors; [3]) was 9 nM.

Work on O=C(NCc1ccc(Cc2c[nH]cn2)cc1)Nc1ccccc1Cl [Compound 4] yielded a Ki (H3 receptors; [3]) of 32 nM.

O=C(NCc1ccc(Cc2c[nH]cn2)cc1)Nc1cccc(C(F)(F)F)c1 [Compound 6] showed a Ki (H3 receptors; [3]) of 16 nM.

In the case of N#Cc1cccc(NC(=O)NCc2ccc(Cc3c[nH]cn3)cc2)c1 [Compound 7], the Ki (H3 receptors; [3]) is reported as 5 nM.

For O=C(NCc1ccc(Cc2c[nH]cn2)cc1)Nc1cc(Cl)cc(Cl)c1 [Compound 8], the Ki (H3 receptors) was 12 nM and the Ki (H3 receptors; [3]) was 4 nM.

For O=C(NCc1ccc(Cc2c[nH]cn2)cc1)Nc1cccc(Cl)c1 [Compound 9], the Ki (H3 receptors; [3]) was 6 nM.

Work on O=C(NCc1ccc(Cc2c[nH]cn2)cc1)Nc1ccc(Cl)c(Cl)c1 [Compound 10] yielded a Ki (H3 receptors; [3]) of 7 nM.

In the case of O=C(Nc1cccc(C(F)(F)F)c1)OCc1ccc(Cc2c[nH]cn2)cc1 [Compound 12], the Ki (H3 receptors) is reported as 21 nM.

Work on O=C(Nc1ccc(Cl)c(Cl)c1)OCc1ccc(Cc2c[nH]cn2)cc1 [Compound 13] yielded a Ki (H3 receptors; [3]) of 18 nM.

Cc1cc(C)cc(NC(=O)OCc2ccc(Cc3c[nH]cn3)cc2)c1 [Compound 14] gave a Ki (H3 receptors) of 17 nM.

Work on N#Cc1cccc(NC(=O)OCc2ccc(Cc3c[nH]cn3)cc2)c1 [Compound 15] yielded a Ki (H3 receptors) of 7 nM.

With COc1cccc(NC(=O)OCc2ccc(Cc3c[nH]cn3)cc2)c1 [Compound 17] the Ki (H3 receptors) was 13 nM.

In the case of O=C(Nc1cc(C(F)(F)F)cc(C(F)(F)F)c1)OCc1ccc(Cc2c[nH]cn2)cc1 [Compound 18], the Ki (H3 receptors; [3]) is reported as 23 nM.

O=C(Nc1cccc(F)c1)OCc1ccc(Cc2c[nH]cn2)cc1 [Compound 19] showed a Ki (H3 receptors) of 5 nM.

O=C(Nc1cc(Cl)cc(Cl)c1)OCc1ccc(Cc2c[nH]cn2)cc1 [Compound 20] showed a Ki (H3 receptors; [3]) of 5 nM.

With O=C(CCc1ccc(Cc2c[nH]cn2)cc1)Nc1ccccc1 [Compound 21] the Ki (H3 receptors) was 2 nM.

O=C(CCc1ccc(Cc2c[nH]cn2)cc1)Nc1cccc(Cl)c1 [Compound 22] showed a Ki (H3 receptors) of 1 nM.

O=C(CCc1ccc(Cc2c[nH]cn2)cc1)NCCc1ccc(Cl)cc1 [Compound 24] showed a Ki (H3 receptors) of 5 nM.

In the case of S=C(NC1CCCCC1)N1CCC(c2cnc[nH]2)CC1 [thioperamide], the “duration of each phase of convulsion” value [1] is given as “decreased the duration of each phase of convulsion”, the electroconvulsive threshold [1] is given as “raised the electroconvulsive threshold” and the “short-term memory and reversal learning” value [2] is given as “can improve short-term memory and reversal learning in the rat”.

Source: patent US5990147A, “H3 receptor ligands of the phenyl-alkyl-imidazoles type” (Schering Corporation, priority 1998, dated 1999)
